# Experimental data published in ChEMBL document CHEMBL1828619, “Identification of pyridazin-3-one derivatives as potent, selective histamine H₃ receptor inverse agonists with robust wake activity” (Bioorg Med Chem Lett, 2011).
# The source made the active and inactive calls. No cut-off for these calls is given here.
# What was measured:
# [1] = biological target: T1, Histamine H3 receptor (Homo sapiens, UniProt Q9Y5N1); test: Displacement of [3H]NAMH from human cloned histamine 3 receptor expressed in CHO cells; format: cell-based
# [2] = biological target: Histamine H3 receptor (Rattus norvegicus, UniProt Q9QYN8); test: Displacement of [3H]NAMH from rat cloned histamine 3 receptor expressed in CHO cells; format: cell-based
# [3] = Half life in rat at 5 mg/kg, po after 6 hrs; format: ADME, organism-based; set-up: dose 5 mg/kg, route oral; conditions: in vivo
# [4] = AUC (0 to 6 hrs) in rat at 5 mg/kg, po; format: ADME, organism-based; set-up: time < 6 hr, dose 5 mg/kg, route oral; conditions: plasma
# [5] = Ratio of drug level in brain to plasma in rat at 5 mg/kg, po; format: ADME, organism-based; set-up: dose 5 mg/kg, route oral; conditions: read-out: BPR
# [6] = biological target: Cytochrome P450 2C19 (Homo sapiens, UniProt P33261); test: Inhibition of CYP2C19; format: ADME
# [7] = biological target: Sodium-dependent noradrenaline transporter (Homo sapiens) (UniProt P23975); test: Inhibition of NET at 10 uM
# [8] = Clearance in rat at 1 mg/kg, iv after 6 hrs; format: ADME, organism-based; set-up: dose 1 mg/kg, route intravenous; conditions: in vivo
# [9] = Half life in rat at 1 mg/kg, iv after 6 hrs; format: ADME, organism-based; set-up: dose 1 mg/kg, route intravenous; conditions: in vivo
# [10] = Half life in rat liver microsomes; format: ADME, Microsome
# [11] = biological target: Cytochrome P450 2D6 (Homo sapiens, UniProt P10635); test: Inhibition of CYP2D6; format: ADME
# [12] = biological target: T1, Histamine H3 receptor; test: Inverse activity against human histamine 3 receptor by [35S]GTPgammaS binding assay; format: functional
# [13] = Oral bioavailability in rat at 5 mg/kg after 6 hrs; format: ADME, organism-based; conditions: in vivo
# [14] = system: Rattus norvegicus; test: Inhibition of (R)-alpha-methyl histamine-induced dipsogenia in ip dosed rat; format: functional
# [15] = biological target: Histamine H1 receptor (Homo sapiens) (UniProt P35367); test: Inhibition of human histamine H1 receptor at 10 uM
# [16] = Solubility of the compound at pH 7.4; format: physicochemical; conditions: buffer
# [17] = system: Rattus norvegicus; test: Induction of wake promoting activity in ip dosed EEG/EMG Sprague-Dawley rat model assessed as increase in waking time after 4 hrs; format: functional, organism-based
# [18] = biological target: T2, Cytochrome P450 1A2 (Homo sapiens, UniProt P05177); test: Inhibition of CYP1A2; format: ADME
# T2 sequence (P05177 whole entry): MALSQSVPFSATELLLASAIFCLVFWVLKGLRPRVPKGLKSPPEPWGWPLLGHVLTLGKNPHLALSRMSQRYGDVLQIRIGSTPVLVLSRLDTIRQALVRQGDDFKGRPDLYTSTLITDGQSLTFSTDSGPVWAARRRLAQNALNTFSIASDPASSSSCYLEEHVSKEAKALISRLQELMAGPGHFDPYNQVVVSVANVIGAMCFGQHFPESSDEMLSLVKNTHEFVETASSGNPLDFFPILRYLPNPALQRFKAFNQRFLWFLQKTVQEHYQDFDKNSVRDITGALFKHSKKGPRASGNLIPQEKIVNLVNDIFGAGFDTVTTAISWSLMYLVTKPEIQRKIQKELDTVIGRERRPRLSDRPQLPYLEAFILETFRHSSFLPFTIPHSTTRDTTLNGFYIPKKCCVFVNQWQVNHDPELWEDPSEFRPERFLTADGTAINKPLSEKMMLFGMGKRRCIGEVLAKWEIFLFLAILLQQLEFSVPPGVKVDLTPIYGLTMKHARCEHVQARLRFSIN
# [19] = Half life in human liver microsomes; format: ADME, Microsome
# [20] = Cmax in rat at 5 mg/kg, po after 6 hrs; format: ADME, organism-based; set-up: dose 5 mg/kg, route oral; conditions: in vivo
# [21] = system: Rattus norvegicus; test: Induction of wake promoting activity in EEG/EMG Sprague-Dawley rat model assessed as increase in waking time at 30 mg/kg, ip after 4 hrs; format: functional; conditions: route intraperitoneal
# [22] = Solubility of the compound at pH 2; format: physicochemical; conditions: buffer
# [23] = Half life in dog liver microsomes; format: ADME, Canis lupus familiaris, Microsome
# [24] = Half life in mouse liver microsomes; format: ADME, Microsome
# [25] = biological target: Histamine H2 receptor (Homo sapiens) (UniProt P25021); test: Inhibition of human histamine H2 receptor at 10 uM
# [26] = biological target: Cytochrome P450 3A4 (Homo sapiens, UniProt P08684); test: Inhibition of CYP3A4; format: ADME
# [27] = biological target: T1, Histamine H3 receptor; test: Antagonist activity at human histamine 3 receptor by [35S]GTPgammaS binding assay; format: functional
# [28] = Half life in monkey liver microsomes; format: ADME, Macaca mulatta, Microsome; conditions: rhesus monkey
# [29] = Volume of distribution in rat at 1 mg/kg, iv after 6 hrs; format: ADME, organism-based; set-up: dose 1 mg/kg, route intravenous; conditions: in vivo
# [30] = biological target: Histamine H4 receptor (Homo sapiens) (UniProt Q9H3N8); test: Inhibition of human histamine H4 receptor at 10 uM
# [31] = biological target: Cytochrome P450 2C9 (Homo sapiens, UniProt P11712); test: Inhibition of CYP2C9; format: ADME
# [32] = system: Rattus norvegicus; test: Induction of wake promoting activity in EEG/EMG Sprague-Dawley rat model assessed as increase in waking time at 10 mg/kg, ip after 4 hrs; format: functional; conditions: route intraperitoneal
# [33] = Ratio of drug level in brain to plasma in iv dosed rat; format: ADME, organism-based; conditions: read-out: BPR
# [34] = Oral bioavailability in rat; format: ADME, organism-based; conditions: in vivo
# [35] = Half life in iv dosed rat; format: ADME, organism-based; conditions: in vivo
# [36] = Clearance in iv dosed rat; format: ADME, organism-based; conditions: in vivo
# [37] = Volume of distribution in iv dosed rat; format: ADME, organism-based; conditions: in vivo
# [38] = biological target: Voltage-gated inwardly rectifying potassium channel KCNH2 (Homo sapiens, UniProt Q12809); test: Inhibition of human ERG by patch express assay
# [39] = system: Rattus norvegicus; test: Induction of wake promoting activity in EEG/EMG Sprague-Dawley rat model assessed as increase in waking time at 3 mg/kg, ip after 4 hrs; format: functional; conditions: route intraperitoneal
# [40] = system: Rattus norvegicus; test: Induction of wake promoting activity in EEG/EMG Sprague-Dawley rat model assessed as increase in waking time at 10 mg/kg, ip after 7 hrs; format: functional; conditions: route intraperitoneal
# Cytochrome P450 3A4, sequence (P08684 whole entry): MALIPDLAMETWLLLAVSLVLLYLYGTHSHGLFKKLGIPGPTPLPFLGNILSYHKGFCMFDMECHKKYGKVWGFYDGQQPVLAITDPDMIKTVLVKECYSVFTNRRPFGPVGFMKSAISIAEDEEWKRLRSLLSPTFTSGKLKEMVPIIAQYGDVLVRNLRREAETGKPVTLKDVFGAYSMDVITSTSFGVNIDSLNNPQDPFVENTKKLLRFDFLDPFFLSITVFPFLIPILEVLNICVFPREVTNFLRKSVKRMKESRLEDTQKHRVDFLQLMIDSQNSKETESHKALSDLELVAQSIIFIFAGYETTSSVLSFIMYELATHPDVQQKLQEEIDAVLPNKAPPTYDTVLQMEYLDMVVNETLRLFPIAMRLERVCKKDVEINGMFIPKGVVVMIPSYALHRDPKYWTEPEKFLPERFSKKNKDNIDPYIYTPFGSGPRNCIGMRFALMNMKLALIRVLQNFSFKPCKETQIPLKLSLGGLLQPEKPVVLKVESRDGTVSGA
# Cytochrome P450 2C9, sequence (P11712 whole entry): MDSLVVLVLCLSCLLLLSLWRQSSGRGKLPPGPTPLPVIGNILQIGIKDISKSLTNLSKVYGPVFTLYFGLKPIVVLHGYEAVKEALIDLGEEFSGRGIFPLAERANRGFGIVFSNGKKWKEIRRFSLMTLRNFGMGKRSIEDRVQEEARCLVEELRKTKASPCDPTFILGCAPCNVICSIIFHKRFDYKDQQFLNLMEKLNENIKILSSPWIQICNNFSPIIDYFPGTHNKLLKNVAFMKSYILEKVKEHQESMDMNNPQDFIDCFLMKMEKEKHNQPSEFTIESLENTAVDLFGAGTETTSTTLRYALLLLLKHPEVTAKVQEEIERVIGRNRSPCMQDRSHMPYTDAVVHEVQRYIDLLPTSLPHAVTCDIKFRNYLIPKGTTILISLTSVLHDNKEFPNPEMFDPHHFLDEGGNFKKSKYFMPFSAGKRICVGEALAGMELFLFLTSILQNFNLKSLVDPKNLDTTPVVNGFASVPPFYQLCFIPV
# T1 sequence (Q9Y5N1 whole entry): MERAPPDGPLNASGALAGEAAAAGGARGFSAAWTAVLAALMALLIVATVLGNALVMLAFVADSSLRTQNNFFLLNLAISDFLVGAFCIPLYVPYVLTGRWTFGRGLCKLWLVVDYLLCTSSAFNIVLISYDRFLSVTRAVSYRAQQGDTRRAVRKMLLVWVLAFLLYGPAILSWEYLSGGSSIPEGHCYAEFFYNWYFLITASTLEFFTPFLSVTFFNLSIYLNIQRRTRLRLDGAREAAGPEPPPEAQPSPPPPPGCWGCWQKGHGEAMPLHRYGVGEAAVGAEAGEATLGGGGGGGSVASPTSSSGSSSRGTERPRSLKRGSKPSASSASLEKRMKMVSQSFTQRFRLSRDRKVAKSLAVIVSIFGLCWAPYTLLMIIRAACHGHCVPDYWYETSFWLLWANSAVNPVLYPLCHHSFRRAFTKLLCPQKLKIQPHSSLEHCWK
# Histamine H3 receptor (Rattus norvegicus, UniProt Q9QYN8), sequence (Q9QYN8 whole entry): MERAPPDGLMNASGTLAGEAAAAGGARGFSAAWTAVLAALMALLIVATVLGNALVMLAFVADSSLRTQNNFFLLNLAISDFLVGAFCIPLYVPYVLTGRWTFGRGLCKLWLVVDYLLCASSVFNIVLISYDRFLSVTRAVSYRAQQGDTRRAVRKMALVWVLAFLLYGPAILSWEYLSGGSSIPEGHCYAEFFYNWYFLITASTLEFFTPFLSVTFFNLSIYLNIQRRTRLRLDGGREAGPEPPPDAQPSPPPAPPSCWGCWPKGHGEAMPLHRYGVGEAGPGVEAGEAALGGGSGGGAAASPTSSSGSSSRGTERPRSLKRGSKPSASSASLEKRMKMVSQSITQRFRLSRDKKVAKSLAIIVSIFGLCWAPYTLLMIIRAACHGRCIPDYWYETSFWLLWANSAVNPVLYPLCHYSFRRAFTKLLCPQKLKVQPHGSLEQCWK
# Cytochrome P450 2C19, sequence (P33261 whole entry): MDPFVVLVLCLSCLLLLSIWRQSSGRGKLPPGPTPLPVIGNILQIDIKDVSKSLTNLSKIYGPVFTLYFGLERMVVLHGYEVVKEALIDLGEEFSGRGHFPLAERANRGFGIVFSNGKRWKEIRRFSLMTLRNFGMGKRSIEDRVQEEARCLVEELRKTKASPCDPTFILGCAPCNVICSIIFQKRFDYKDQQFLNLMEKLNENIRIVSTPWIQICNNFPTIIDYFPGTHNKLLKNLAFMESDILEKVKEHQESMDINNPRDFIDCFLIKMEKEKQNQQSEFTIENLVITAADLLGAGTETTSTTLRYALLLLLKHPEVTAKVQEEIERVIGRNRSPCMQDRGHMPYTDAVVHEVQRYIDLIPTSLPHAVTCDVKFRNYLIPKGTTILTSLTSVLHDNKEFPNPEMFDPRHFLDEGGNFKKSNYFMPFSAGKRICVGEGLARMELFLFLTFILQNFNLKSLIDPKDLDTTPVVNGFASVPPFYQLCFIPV
# Cytochrome P450 2D6, sequence (P10635 whole entry): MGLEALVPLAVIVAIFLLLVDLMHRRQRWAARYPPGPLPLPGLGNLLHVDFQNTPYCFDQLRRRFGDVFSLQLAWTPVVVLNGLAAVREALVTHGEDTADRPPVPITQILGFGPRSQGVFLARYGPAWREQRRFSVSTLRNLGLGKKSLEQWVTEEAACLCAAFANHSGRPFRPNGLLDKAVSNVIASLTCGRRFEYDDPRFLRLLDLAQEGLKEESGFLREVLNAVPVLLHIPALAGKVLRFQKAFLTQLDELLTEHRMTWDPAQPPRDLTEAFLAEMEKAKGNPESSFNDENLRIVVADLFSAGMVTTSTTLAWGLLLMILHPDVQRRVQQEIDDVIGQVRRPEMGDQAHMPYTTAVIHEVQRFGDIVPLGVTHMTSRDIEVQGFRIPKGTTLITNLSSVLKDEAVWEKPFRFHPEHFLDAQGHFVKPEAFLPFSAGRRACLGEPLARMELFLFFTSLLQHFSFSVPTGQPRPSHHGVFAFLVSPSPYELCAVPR
# Sodium-dependent noradrenaline transporter (Homo sapiens), sequence (P23975 whole entry): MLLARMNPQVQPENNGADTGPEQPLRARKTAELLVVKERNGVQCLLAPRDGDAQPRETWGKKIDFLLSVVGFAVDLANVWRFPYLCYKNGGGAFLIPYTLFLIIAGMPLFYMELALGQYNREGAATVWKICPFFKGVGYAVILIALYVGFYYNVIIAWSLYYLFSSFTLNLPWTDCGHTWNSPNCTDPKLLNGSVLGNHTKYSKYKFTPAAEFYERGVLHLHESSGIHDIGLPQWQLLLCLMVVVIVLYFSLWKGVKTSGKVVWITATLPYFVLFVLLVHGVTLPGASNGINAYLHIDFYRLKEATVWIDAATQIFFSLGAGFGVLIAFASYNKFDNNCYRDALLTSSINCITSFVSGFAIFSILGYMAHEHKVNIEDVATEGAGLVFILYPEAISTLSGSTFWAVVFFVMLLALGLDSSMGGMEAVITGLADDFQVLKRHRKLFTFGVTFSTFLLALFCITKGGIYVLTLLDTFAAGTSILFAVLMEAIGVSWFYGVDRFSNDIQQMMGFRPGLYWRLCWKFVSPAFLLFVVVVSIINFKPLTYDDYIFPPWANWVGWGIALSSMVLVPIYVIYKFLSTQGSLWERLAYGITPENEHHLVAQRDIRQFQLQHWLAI
# Histamine H1 receptor (Homo sapiens), sequence (P35367 whole entry): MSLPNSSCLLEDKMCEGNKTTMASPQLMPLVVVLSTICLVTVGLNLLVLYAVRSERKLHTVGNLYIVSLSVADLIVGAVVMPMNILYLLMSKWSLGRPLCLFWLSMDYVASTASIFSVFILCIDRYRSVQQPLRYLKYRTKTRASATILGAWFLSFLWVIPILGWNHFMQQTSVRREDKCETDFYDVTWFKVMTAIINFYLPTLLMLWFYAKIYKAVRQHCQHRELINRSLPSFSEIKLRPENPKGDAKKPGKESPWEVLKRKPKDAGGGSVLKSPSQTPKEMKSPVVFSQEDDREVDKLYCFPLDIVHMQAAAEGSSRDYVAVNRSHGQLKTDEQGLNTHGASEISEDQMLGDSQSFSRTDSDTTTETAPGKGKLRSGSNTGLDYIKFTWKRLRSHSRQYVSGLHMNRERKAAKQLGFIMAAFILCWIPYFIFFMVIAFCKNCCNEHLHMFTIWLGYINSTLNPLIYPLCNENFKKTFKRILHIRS
# Histamine H4 receptor (Homo sapiens), sequence (Q9H3N8 whole entry): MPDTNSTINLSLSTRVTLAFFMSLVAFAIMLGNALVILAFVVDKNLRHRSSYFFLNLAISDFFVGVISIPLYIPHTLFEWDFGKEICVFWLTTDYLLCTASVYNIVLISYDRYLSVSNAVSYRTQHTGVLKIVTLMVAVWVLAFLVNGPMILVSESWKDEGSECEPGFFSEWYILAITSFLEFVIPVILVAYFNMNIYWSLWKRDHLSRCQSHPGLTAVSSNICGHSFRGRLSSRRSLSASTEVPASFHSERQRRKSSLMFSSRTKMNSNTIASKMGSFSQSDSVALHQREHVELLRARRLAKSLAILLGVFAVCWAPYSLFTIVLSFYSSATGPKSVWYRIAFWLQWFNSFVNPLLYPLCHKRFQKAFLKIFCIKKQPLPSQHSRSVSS
# Histamine H2 receptor (Homo sapiens), sequence (P25021 whole entry): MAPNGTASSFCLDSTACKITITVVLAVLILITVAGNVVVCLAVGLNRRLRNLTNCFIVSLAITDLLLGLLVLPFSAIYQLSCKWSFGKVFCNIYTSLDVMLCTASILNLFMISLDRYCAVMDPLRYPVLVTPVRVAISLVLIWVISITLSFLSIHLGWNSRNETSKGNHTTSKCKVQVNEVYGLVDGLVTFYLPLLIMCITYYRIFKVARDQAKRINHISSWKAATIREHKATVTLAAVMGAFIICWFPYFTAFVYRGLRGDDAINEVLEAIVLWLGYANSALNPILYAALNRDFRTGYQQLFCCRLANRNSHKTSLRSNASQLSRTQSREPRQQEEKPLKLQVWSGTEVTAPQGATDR
structure (smiles),measurement,setting,value
COc1cc(OCCCN2CCC[C@H]2C)ccc1-c1ccc(=O)[nH]n1,Ki,[1],152 nM
same,Ki,[2],229 nM
C[C@@H]1CCCN1CCCOc1c(F)cc(-c2ccc(=O)n(C)n2)cc1F,Ki,[1],11 nM
same,Ki,[2],41 nM
C[C@@H]1CCCN1CCCOc1ccc(-c2ccc(=O)n(C)n2)cc1,half-life,[3],138 min
same,AUC(0-t) at 6 h,[4],538 ng·h/mL
same,Kp,[5],3.5
C[C@@H]1CCCN1CCCOc1ccc(-c2ccc(=O)n(-c3ccccn3)n2)cc1,Ki,[1],10 nM
same,Ki,[2],22 nM
C[C@@H]1CCCN1CCCOc1ccc(-c2ccc(=O)n(C)n2)cc1F,IC50,[6],> 30000 nM
same,half-life,[3],96 min
same,inhibition,[7],> 70%
same,clearance,[8],38 mL/min/kg
same,AUC(0-t) at 6 h,[4],936 ng·h/mL
same,Kp,[5],3.4
same,half-life,[9],72 min
same,half-life,[10],> 40 min
same,Ki,[1],5.8 nM
same,Ki,[2],27 nM
same,IC50,[11],> 30000 nM
same,Activity,[12],Active
same,bioavailability,[13],42%
same,ED50,[14],0.13 mg/kg
same,inhibition,[14],Dose-dependent effect
same,inhibition,[15],< 30%
same,solubility,[16],> 250 µg/mL
same,Activity,[17],Dose-dependent effect
same,IC50,[18],> 30000 nM
same,half-life,[19],> 40 min
same,Cmax,[20],284 ng/mL
same,Time,[21],184 min
same,solubility,[22],> 250 µg/mL
same,half-life,[23],> 40 min
same,half-life,[24],> 40 min
same,inhibition,[25],< 30%
same,IC50,[26],> 30000 nM
same,EC50,[27],1.3 nM
same,half-life,[28],> 40 min
same,Vd,[29],4.5 L/kg
same,inhibition,[30],< 30%
same,IC50,[31],> 30000 nM
same,Time,[32],157 min
C[C@@H]1CCCN1CCCOc1ccc(-c2ccc(=O)n(CCO)n2)cc1,Ki,[1],3 nM
same,Ki,[2],9.5 nM
Cc1cc(=O)[nH]nc1-c1ccc(OCCCN2CCC[C@H]2C)cc1,Ki,[1],2.9 nM
same,Ki,[2],12 nM
C[C@@H]1CCCN1CCCOc1ccc(-c2ccc(=O)n(CC(F)(F)F)n2)cc1,Ki,[1],5.7 nM
same,Ki,[2],11 nM
C[C@@H](COc1ccc(-c2ccc(=O)n(C)n2)cc1)CN1CCC[C@H]1C,Ki,[1],15 nM
same,Ki,[2],52 nM
C[C@@H]1CCCN1CCCOc1ccc(-c2n[nH]c(=O)cc2-c2ccccn2)cc1,Kp,[33],< 1
same,Ki,[1],12 nM
same,bioavailability,[34],< 10%
same,Ki,[2],70 nM
C[C@@H]1CCCN1CCCOc1c(F)cc(-c2ccc(=O)[nH]n2)cc1F,Ki,[1],7.1 nM
same,Ki,[2],40 nM
C[C@@H]1CCCN1CCCOc1ccc(-c2ccc(=O)[nH]n2)cn1,Ki,[1],35 nM
same,Ki,[2],70 nM
C[C@@H]1CCCN1CCCOc1ccc(-c2ccc(=O)n(-c3ncccn3)n2)cc1,IC50,[6],> 30000 nM
same,Kp,[33],0.5
same,half-life,[35],90 min
same,half-life,[10],> 40 min
same,Ki,[1],1.4 nM
same,bioavailability,[34],56%
same,Ki,[2],7.9 nM
same,IC50,[11],> 30000 nM
same,clearance,[36],29 mL/min/kg
same,Vd,[37],3.9 L/kg
same,IC50,[18],> 30000 nM
same,half-life,[19],> 40 min
same,half-life,[23],> 40 min
same,half-life,[24],> 40 min
same,IC50,[26],> 30000 nM
same,half-life,[28],> 40 min
same,IC50,[38],> 10000 nM
same,IC50,[31],> 30000 nM
C[C@@H]1CCCN1CCCOc1ccc(-c2ccc(=O)[nH]n2)c(F)c1,Ki,[1],16 nM
same,Ki,[2],69 nM
C[C@@H]1CCCN1CCCOc1ccc(-c2ccc(=O)n(C)n2)cc1Cl,Ki,[1],4.4 nM
same,Ki,[2],14 nM
C[C@@H]1CCCN1CCCOc1ccc(-c2cc(-c3ccccn3)c(=O)[nH]n2)cc1,Kp,[33],< 1
same,Ki,[1],3.1 nM
same,bioavailability,[34],< 10%
same,Ki,[2],10 nM
C[C@H](COc1ccc(-c2ccc(=O)n(C)n2)cc1)CN1CCC[C@H]1C,IC50,[6],> 30000 nM
same,half-life,[3],258 min
same,inhibition,[7],19%
same,clearance,[8],37 mL/min/kg
same,AUC(0-t) at 6 h,[4],892 ng·h/mL
same,Kp,[5],2.5
same,half-life,[9],48 min
same,half-life,[10],> 40 min
same,Ki,[1],2.4 nM
same,Ki,[2],4.6 nM
same,IC50,[11],> 30000 nM
same,Activity,[12],Active
same,bioavailability,[13],38%
same,ED50,[14],0.02 mg/kg
same,inhibition,[14],Dose-dependent effect
same,solubility,[16],> 250 µg/mL
same,Time,[39],166 min
same,IC50,[18],> 30000 nM
same,half-life,[19],> 40 min
same,Cmax,[20],146 ng/mL
same,solubility,[22],> 250 µg/mL
same,half-life,[23],> 40 min
same,half-life,[24],> 40 min
same,IC50,[26],> 30000 nM
same,EC50,[27],2.1 nM
same,half-life,[28],> 40 min
same,Vd,[29],2.5 L/kg
same,Time,[40],196 min
same,IC50,[31],> 30000 nM
same,Time,[32],231 min
Cc1cc(-c2ccc(OCCCN3CCC[C@H]3C)cc2)n[nH]c1=O,Ki,[1],3.4 nM
same,Ki,[2],8.7 nM
C[C@@H]1CCCN1CCCOc1ccc(-c2ccc(=O)n(CCF)n2)cc1,Ki,[1],3.4 nM
same,Ki,[2],11 nM
C[C@@H]1CCCN1CCCOc1ccc(-c2ccc(=O)[nH]n2)cc1C#N,Ki,[1],38 nM
same,Ki,[2],111 nM
